Assay results published in publication PMC9218960 (ACS infectious diseases, 2020).
Changes are numbered by the printed parent chain.

Tests used:
Type in all cases: cell-based
WT PfENT1 = biological target: T1, WT PfENT1 (Plasmodium falciparum, UniProt Q8IDM6); test: [3H]uridine uptake inhibition by purines in PfENT1-expressing yeast
T1 sequence (Q8IDM6 1-422): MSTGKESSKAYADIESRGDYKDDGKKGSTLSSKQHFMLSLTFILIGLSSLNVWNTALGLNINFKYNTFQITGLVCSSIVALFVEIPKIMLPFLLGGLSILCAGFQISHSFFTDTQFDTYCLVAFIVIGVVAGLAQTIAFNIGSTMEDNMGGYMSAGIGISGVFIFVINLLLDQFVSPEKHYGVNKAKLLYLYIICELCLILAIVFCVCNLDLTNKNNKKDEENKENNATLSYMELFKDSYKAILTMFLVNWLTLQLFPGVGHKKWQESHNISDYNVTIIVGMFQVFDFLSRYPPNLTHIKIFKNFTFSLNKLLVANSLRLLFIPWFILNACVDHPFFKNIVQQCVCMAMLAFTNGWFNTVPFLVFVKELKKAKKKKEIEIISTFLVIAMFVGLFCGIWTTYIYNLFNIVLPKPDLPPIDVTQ

PfENT1 V129I/L133F = biological target: T2, PfENT1 V129I/L133F (Plasmodium falciparum, UniProt Q8IDM6, L133F/V129I); test: [3H]uridine uptake inhibition by purines in PfENT1-SNP-expressing yeast
T2 sequence (Q8IDM6 1-422 V129I/L133F): T1 sequence (Q8IDM6 1-422) with V129I, L133F

PfENT1 L385I = biological target: T3, PfENT1 L385I (Plasmodium falciparum, UniProt Q8IDM6, L385I); test: as above
T3 sequence (Q8IDM6 1-422 L385I): T1 sequence (Q8IDM6 1-422) with L385I

PfENT1 F36S = biological target: T4, PfENT1 F36S (Plasmodium falciparum, UniProt Q8IDM6, F36S); test: as above
T4 sequence (Q8IDM6 1-422 F36S): T1 sequence (Q8IDM6 1-422) with F36S

PfENT1 V345I = biological target: T5, PfENT1 V345I (Plasmodium falciparum, UniProt Q8IDM6, V345I); test: as above
T5 sequence (Q8IDM6 1-422 V345I): T1 sequence (Q8IDM6 1-422) with V345I

PfENT1 Q284E = biological target: T6, PfENT1 Q284E (Plasmodium falciparum, UniProt Q8IDM6, Q284E); test: as above
T6 sequence (Q8IDM6 1-422 Q284E): T1 sequence (Q8IDM6 1-422) with Q284E

Row | SMILES | IC50 (WT PfENT1) [µM] | IC50 (PfENT1 V129I/L133F) [µM] | IC50 (PfENT1 L385I) [µM] | IC50 (PfENT1 F36S) [µM] | IC50 (PfENT1 V345I) [µM] | IC50 (PfENT1 Q284E) [µM]
1 | O=c1[nH]cnc2nc[nH]c12 [Hypoxanthine, hypoxanthine] | 178 ± 44 | 360 ± 66 | 173 ± 46 | 171 ± 25 | 161 ± 57 | 566 ± 133
2 | Nc1ncnc2nc[nH]c12 [Adenine, adenine] | 475 ± 124 | 930 ± 285 | 185 ± 15 | 292 ± 21 | 225 ± 17 | 1070 ± 128
3 | OC[C@H]1O[C@@H](n2cnc3c(O)ncnc32)[C@H](O)[C@@H]1O [Inosine, inosine] | 20 ± 7 | 20 ± 7 | 58 ± 17 | 24 ± 7 | 4 ± 0.2 | 18 ± 6
